Reference: publication PMC12408352, “Complete biosynthesis of salicylic acid from phenylalanine in plants” (Nature, 2025)

What was measured:
Type in all cases: biochemical
[1] = biological target: T1, OSD3, Flag-OSD3 (Oryza sativa, UniProt Q69P73); test: product detection by LC-UV-MS, yeast microsomes; conditions: 50 µM BB, 5 mM NADPH, 80 mM sodium phosphate pH 7.0, 5 mM DTT, 30 °C
T1 construct: gene Os09g0441400; Flag fusion in pESC-URA, microsomes of yeast strain WAT11
T1 sequence (Q69P73 1-514): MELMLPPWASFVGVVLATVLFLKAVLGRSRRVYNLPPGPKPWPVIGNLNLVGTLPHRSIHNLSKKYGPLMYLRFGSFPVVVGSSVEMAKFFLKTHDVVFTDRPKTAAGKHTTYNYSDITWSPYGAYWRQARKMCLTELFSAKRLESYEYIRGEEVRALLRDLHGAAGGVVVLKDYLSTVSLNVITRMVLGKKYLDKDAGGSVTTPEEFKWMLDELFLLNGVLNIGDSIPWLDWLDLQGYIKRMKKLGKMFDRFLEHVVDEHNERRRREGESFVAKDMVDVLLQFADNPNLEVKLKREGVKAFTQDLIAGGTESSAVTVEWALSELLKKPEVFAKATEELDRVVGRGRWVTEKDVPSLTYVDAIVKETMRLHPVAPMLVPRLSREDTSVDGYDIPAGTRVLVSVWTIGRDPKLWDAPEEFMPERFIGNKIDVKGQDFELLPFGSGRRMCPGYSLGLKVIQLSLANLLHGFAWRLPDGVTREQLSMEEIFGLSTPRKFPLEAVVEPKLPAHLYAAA

[2] = biological target: T2, AIM1 (OsCHD), MBP-AIM1 (Oryza sativa, UniProt Q8W1L6); test: product detection by LC-UV-MS; conditions: 0.5 mM CA-CoA, 1 mM NAD+, 100 mM Tris-HCl pH 7.5, MgCl2, KCl, pyruvate / lactate dehydrogenase, 30 °C
T2 construct: gene MFP; CDS from rice cDNA in pMAL-c2X, MBP fusion, E. coli BL21 (DE3), amylose resin
T2 sequence (Q8W1L6 1-726): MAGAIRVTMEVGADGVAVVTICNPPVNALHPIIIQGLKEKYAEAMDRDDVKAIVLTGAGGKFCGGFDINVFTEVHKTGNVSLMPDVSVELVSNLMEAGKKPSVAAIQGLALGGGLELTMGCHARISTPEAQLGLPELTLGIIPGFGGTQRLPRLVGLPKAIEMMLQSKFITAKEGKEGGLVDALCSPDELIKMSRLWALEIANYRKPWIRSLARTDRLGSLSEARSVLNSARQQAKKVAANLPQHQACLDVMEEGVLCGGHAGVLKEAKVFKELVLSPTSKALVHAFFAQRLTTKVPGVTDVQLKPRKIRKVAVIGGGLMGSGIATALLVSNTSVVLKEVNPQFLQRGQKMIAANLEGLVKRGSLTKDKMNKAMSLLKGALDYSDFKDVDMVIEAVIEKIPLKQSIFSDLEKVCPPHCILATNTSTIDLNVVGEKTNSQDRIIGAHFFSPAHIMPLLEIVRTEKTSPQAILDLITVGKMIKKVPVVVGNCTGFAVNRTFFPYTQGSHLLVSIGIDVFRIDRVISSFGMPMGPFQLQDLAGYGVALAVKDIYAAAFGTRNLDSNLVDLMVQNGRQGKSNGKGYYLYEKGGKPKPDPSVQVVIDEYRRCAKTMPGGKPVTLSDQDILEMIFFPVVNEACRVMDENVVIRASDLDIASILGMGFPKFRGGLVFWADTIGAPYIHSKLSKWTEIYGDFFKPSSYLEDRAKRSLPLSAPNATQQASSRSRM

[3] = biological target: T3, PhCHD, MBP-PhCHD (Petunia x hybrida, UniProt J9YIZ4); test: product detection by LC-UV-MS; conditions: positive control; AIM1 assay conditions, 0.5 mM CA-CoA, 1 mM NAD+, Tris-HCl pH 7.5, 30 °C
T3 construct: gene CHD; synthesized gene in pMAL-c5X, MBP fusion, E. coli BL21 (DE3), amylose resin
T3 sequence (J9YIZ4 1-724): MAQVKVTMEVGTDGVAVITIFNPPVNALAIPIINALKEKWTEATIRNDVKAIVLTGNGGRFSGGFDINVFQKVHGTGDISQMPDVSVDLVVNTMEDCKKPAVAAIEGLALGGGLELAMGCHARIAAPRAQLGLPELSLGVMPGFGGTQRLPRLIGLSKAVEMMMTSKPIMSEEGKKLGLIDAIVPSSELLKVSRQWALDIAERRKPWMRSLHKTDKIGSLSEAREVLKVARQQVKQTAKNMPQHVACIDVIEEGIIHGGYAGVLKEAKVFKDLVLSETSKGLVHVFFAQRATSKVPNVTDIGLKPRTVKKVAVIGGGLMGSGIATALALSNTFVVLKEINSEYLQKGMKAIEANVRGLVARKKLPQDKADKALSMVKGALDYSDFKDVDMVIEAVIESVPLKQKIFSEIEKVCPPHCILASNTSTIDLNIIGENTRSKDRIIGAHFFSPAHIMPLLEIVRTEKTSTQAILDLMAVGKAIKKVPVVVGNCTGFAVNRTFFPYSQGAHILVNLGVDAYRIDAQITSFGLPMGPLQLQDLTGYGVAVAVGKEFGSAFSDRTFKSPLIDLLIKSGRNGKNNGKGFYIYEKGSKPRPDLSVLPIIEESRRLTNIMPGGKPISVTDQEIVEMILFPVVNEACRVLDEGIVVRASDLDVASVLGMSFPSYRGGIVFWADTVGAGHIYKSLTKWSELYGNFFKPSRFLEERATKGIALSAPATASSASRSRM

SMILES | product detection by LC-UV-MS, yeast microsomes [1] | product detection by LC-UV-MS [2] | product detection by LC-UV-MS [3]
O=C(OCc1ccccc1)c1ccccc1 [benzyl benzoate] | OSD3 acts as a benzyl benzoate 2-hydroxylase (BB2H) to catalyse the hydroxylation of BB |  | 
CC(C)(COP(=O)(O)OP(=O)(O)OC[C@H]1O[C@@H](n2cnc3c(N)ncnc32)[C@H](O)[C@@H]1OP(=O)(O)O)[C@@H](O)C(=O)NCCC(=O)NCCSC(=O)CC(=O)c1ccccc1 [benzoylacetyl-CoA] |  | confirming the product of AIM1 as BAc-CoA | used it to produce a BAc-CoA standard
CC(C)(COP(=O)(O)OP(=O)(O)OC[C@H]1O[C@@H](n2cnc3c(N)ncnc32)[C@H](O)[C@@H]1OP(=O)(O)O)[C@@H](O)C(=O)NCCC(=O)NCCSC(=O)/C=C/c1ccccc1 [cinnamoyl-CoA] |  | AIM1 functions as a CA-CoA hydratase-dehydrogenase for converting CA-CoA to BAc-CoA | The MBP–PhCHD enzyme was used as a positive control
O=C(OCc1ccccc1)c1ccccc1O [benzyl salicylate] | to catalyse the hydroxylation of BB, yielding BS |  | 
